Among the test systems are 786-0 renal; LOX IMVI melanoma; SN12C renal; UACC-257 melanoma; MALME-3M melanoma; A498 renal; OVCAR-4 ovarian; SNB-19 CNS; NCI/ADR-RES ovarian; NCI-H522 lung.
Experiment in all cases: growth of human tumour cells (NCI), 48 h

“And” between values parts separate entries of the source, which are not always exact repeats. Identical values can stand only once.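 Following 48 hours of exposure in 96-well plates, responses at five concentrations were used to interpolate endpoints linearly. GI50 = concentration required for 50% inhibition of growth. TGI: total growth inhibition.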 *1 amine or outer side, *2 acyl side, *3 side chain or, on linkers, in order; H or OH if unused. Where a SMILES comes first, the peptide text is derived from it. [ ]: non-standard residue; d: D form. The star is where a group is joined. X12 = NCCCCC(N[*:1])C(=O)CN1CCCC1C(=O)[*:2]; Pentadecanoyl = CCCCCCCCCCCCCCC(=O)*

Turning to `NS(=O)(=O)c1ccc(NS(=O)(=O)c2ccc(NC(=O)N(c3ccccc3)c3ccccc3)cc2)cc1`, the TGI in the experiment on 786-0 renal, in the experiment with LOX IMVI melanoma, with SN12C renal, in the experiment with UACC-257 melanoma, in the experiment with MALME-3M melanoma and in the experiment on A498 renal was above 100 µM in each case. Besides, the TGI in the experiment with OVCAR-4 ovarian, in the experiment with SNB-19 CNS, with NCI/ADR-RES ovarian and in the experiment on NCI-H522 lung was above 100 µM in each case.
Turning to `CN1CCN(C2CC(=O)c3c(Cl)sc(Cl)c32)CC1` (stereo not drawn), the TGI in the experiment on 786-0 renal is 21.8 µM; in the experiment with LOX IMVI melanoma, 3.83 µM; in the experiment on SN12C renal, 30 µM; with UACC-257 melanoma, above 61.5 µM; with MALME-3M melanoma it was above 50.3 µM; in the experiment with A498 renal, above 75 µM. Moreover, the TGI was above 42.9 µM with OVCAR-4 ovarian, above 100 µM in the experiment on SNB-19 CNS, above 59 µM in the experiment with NCI/ADR-RES ovarian and 13.3 µM in the experiment with NCI-H522 lung.
Take `COc1ccc2c(-c3csc(-c4c[nH]c5ccccc45)n3)c[nH]c2c1`: the TGI in the experiment on 786-0 renal is 18.2 µM; in the experiment with LOX IMVI melanoma, above 31.9 µM; in the experiment with SN12C renal, 35.9 µM; in the experiment with UACC-257 melanoma, above 90.6 µM; with MALME-3M melanoma, 32.1 µM; in the experiment on A498 renal, 21.6 µM. Besides, the TGI is 69.8 µM in the experiment on OVCAR-4 ovarian, above 100 µM in the experiment on SNB-19 CNS, above 81.6 µM in the experiment with NCI/ADR-RES ovarian and 25.4 µM in the experiment with NCI-H522 lung.
With `c1ccc2c(c1)[C@@H]1O[C@@H]1[C@@]13O[C@@]21[C@H]1O[C@H]1c1ccccc13`, the TGI with 786-0 renal turned out to be 30.1 µM; in the experiment with LOX IMVI melanoma, 27.7 µM; in the experiment with SN12C renal, 38.2 µM; in the experiment on UACC-257 melanoma, 37.2 µM; with MALME-3M melanoma, 26.3 µM; in the experiment with A498 renal, 30.7 µM. Besides, the TGI stood at 26.8 µM in the experiment with OVCAR-4 ovarian, 40.1 µM with SNB-19 CNS, 39.6 µM with NCI/ADR-RES ovarian and 25.4 µM in the experiment with NCI-H522 lung.
With `Nc1nn2cc(-c3ccccc3)[n+](CC(=O)c3ccccc3)c2s1`, the TGI was 40.2 µM with 786-0 renal; 35.4 µM with LOX IMVI melanoma; above 100 µM in the experiment on SN12C renal; 70.5 µM with UACC-257 melanoma; 27.3 µM in the experiment with MALME-3M melanoma; above 100 µM in the experiment on A498 renal. Besides, the values for the TGI in the experiment on SNB-19 CNS, in the experiment on NCI/ADR-RES ovarian and in the experiment with NCI-H522 lung were 52.9 µM, above 100 µM and 26.1 µM, respectively.
On to `CC1CC2OC(=N)C1(C#N)C2(C#N)C#N` (stereo not drawn), for which the TGI in the experiment on 786-0 renal amounted to 44.9 µM; in the experiment with LOX IMVI melanoma it was 31 µM; with SN12C renal, 33.6 µM; in the experiment with UACC-257 melanoma it was 41 µM; with MALME-3M melanoma, 48.9 µM; in the experiment with A498 renal, 42 µM. The TGI was above 100 µM in the experiment with SNB-19 CNS, above 100 µM with NCI/ADR-RES ovarian and 37.8 µM in the experiment on NCI-H522 lung.
For `CC(=O)OC1COC(n2c(N)c(C#N)c(-c3ccccc3)c(C#N)c2=S)C(OC(C)=O)C1OC(C)=O` (stereo not drawn), the TGI is above 100 µM with 786-0 renal; 79 µM and 76.7 µM in the experiment with LOX IMVI melanoma; above 100 µM in the experiment on SN12C renal; above 100 µM in the experiment with UACC-257 melanoma; above 100 µM in the experiment on MALME-3M melanoma; 66 µM and 79.3 µM in the experiment with A498 renal. For the same molecule, the TGI with OVCAR-4 ovarian, in the experiment on SNB-19 CNS, in the experiment with NCI/ADR-RES ovarian and with NCI-H522 lung was above 100 µM each time.
As for `CC(C)c1cc(C(C)C)c(B(c2ccccc2)c2ccccc2)c(C(C)C)c1Br`, the TGI in the experiment with 786-0 renal, with LOX IMVI melanoma, in the experiment on SN12C renal, in the experiment on UACC-257 melanoma, in the experiment with MALME-3M melanoma and in the experiment with A498 renal was above 100 µM in each case. The TGI in the experiment on OVCAR-4 ovarian, in the experiment on SNB-19 CNS, in the experiment on NCI/ADR-RES ovarian and in the experiment with NCI-H522 lung was above 100 µM in each case.
Regarding `CO/C=C(/C(=O)OC)c1ccccc1[C@H]1C[C@@H]1c1ccccc1`, the TGI was above 100 µM in the experiment on 786-0 renal; 90.3 µM in the experiment on SN12C renal; 41.3 µM with UACC-257 melanoma; 41.3 µM with MALME-3M melanoma; 87.2 µM in the experiment with A498 renal; 62.3 µM in the experiment on OVCAR-4 ovarian. The TGI with SNB-19 CNS was above 100 µM; with NCI/ADR-RES ovarian, 68.2 µM; in the experiment with NCI-H522 lung, 32 µM.
`CN(C)CCSc1nccc(-c2ccc(-c3ccnc(SCCN(C)C)n3)s2)n1`: the TGI in the experiment with LOX IMVI melanoma worked out at 11.9 µM; with SN12C renal, 21 µM; with UACC-257 melanoma, 31.1 µM; in the experiment on MALME-3M melanoma it was 24.2 µM; in the experiment with A498 renal, 29.6 µM; in the experiment on OVCAR-4 ovarian, 16.2 µM. For the same molecule, the TGI with SNB-19 CNS was 38.8 µM; in the experiment on NCI/ADR-RES ovarian, 19.9 µM; in the experiment with NCI-H522 lung, 33.5 µM.
For the molecule `CC(=O)O[C@H]1CC[C@]2(C=O)[C@H]3CC[C@]4(C)[C@@H](C5=CC(=O)OC5)CC[C@]4(O)[C@@H]3CC[C@]2(O)C1`, the TGI with LOX IMVI melanoma was found to be 0.933 µM; with SN12C renal, 1.53 µM; with UACC-257 melanoma, 1.63 µM; in the experiment with MALME-3M melanoma, 0.566 µM; with A498 renal, 1.16 µM; in the experiment on OVCAR-4 ovarian it was 0.35 µM. In addition, the TGI in the experiment on SNB-19 CNS was 2.24 µM; in the experiment on NCI/ADR-RES ovarian, 0.467 µM; in the experiment with NCI-H522 lung, 0.357 µM.
On to `CCCCCCCCCCCCCCC(=O)NC(CCCCN)C(=O)CN1CCCC1C(=O)NCC(=O)NC(Cc1ccccc1)C(=O)N1CCCC1C(=O)NC(CO)C(=O)NC(Cc1ccc(O)cc1)C(=O)NC(CCCCN)C(=O)NC(CC(C)C)C(=O)NC(CCCN=C(N)N)C(=O)N1CCCC1C(=O)NCC(N)=O` (stereo not drawn) (Pentadecanoyl-[X12]GFPSYKLRPG-NH2; configuration not given here), for which the GI50 in the experiment on UACC-257 melanoma is 29.5 µM; in the experiment with MALME-3M melanoma, 8.11 µM; with A498 renal, 40.6 µM; with OVCAR-4 ovarian, 34.8 µM; in the experiment on SNB-19 CNS, 24.4 µM; in the experiment on NCI/ADR-RES ovarian, 20.6 µM. Moreover, the GI50 in the experiment on NCI-H522 lung was 23.1 µM. Further, the TGI is 52.1 µM in the experiment with UACC-257 melanoma; 32.2 µM in the experiment with MALME-3M melanoma; above 100 µM in the experiment on A498 renal; 87.2 µM in the experiment on OVCAR-4 ovarian; 50.4 µM in the experiment on SNB-19 CNS; 43.7 µM with NCI/ADR-RES ovarian. For the same molecule, in the experiment on NCI-H522 lung, the TGI stood at 55.6 µM.
`C/C(=N\Nc1nc2ccccc2n1C)c1ccncn1`: the TGI with 786-0 renal was 20.3 µM; in the experiment with SN12C renal, above 100 µM; in the experiment with UACC-257 melanoma, above 100 µM; in the experiment with MALME-3M melanoma, above 100 µM; with A498 renal, 5.79 µM; with OVCAR-4 ovarian, above 100 µM. The TGI in the experiment on SNB-19 CNS was above 100 µM; with NCI/ADR-RES ovarian, 0.458 µM; in the experiment on NCI-H522 lung, above 31.4 µM.
